Data on two compounds can be found in patent US9937259B2, “Abiraterone derivatives and non-covalent complexes with albumin” (Zhuhai Beihai Biotech Co., Ltd., priority 2014, dated 2018).

SMILES strings stand for the structures.

For data set [1] the following is noted: product insert; cited from earlier work.
For data set [2] the following is noted: oral drug, poor absorption; cited from earlier work.
The conditions of data set [3]: depending on fat content of the meal; cited from earlier work.
In data set [4] the target is CYP3A4 liver enzyme (Homo sapiens, UniProt P08684). To be noted: cited from earlier work.
The nature of data set [5]: Persistence in plasma (incubation at 37° C., LC-MS/MS). It counts as in vitro ADME, human. To be noted: for Peak Area Ratio (Analyte/IS): Human Plasma. The procedure:
Test compounds and control (procaine) were incubated at a concentration of 10 μM with human plasma. […]
After quenching by acetonitrile, the plates were capped, vortexed, and centrifuged at 3000 rpm for 10 minutes. The supernatant was injected into LC-MS/MS.

Data set [6] is described as follows: Persistence in plasma study, PBS buffer incubation. It counts as physicochemical. To be noted: for Peak Area Ratio (Analyte/IS): PBS Buffer (pH 7.4), 37° C.; for % Remaining after 24-hr Incubation at 37° C.: PBS buffer.

Chain of CYP3A4 liver enzyme (P08684 whole entry): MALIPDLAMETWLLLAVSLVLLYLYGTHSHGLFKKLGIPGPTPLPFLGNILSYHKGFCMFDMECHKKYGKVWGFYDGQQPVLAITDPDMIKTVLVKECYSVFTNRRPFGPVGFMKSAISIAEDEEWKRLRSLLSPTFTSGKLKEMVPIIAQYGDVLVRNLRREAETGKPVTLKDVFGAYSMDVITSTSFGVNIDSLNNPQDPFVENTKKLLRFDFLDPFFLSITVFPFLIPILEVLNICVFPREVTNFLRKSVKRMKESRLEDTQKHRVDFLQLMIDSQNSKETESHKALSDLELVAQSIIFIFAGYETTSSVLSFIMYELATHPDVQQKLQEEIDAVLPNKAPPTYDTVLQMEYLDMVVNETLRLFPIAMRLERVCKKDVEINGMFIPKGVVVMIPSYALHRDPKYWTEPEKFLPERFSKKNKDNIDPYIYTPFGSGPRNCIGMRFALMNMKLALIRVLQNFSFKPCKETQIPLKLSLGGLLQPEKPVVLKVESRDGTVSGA

Turning to `CC(=O)O[C@H]1CC[C@@]2(C)C(=CC[C@@H]3[C@@H]2CC[C@]2(C)C(c4cccnc4)=CC[C@@H]32)C1` [abiraterone acetate], the Solubility in water result in data set [1] is listed as “practically insoluble”. Further, the Administered drug excreted in data set [2] is listed as 77%. Further, the Food-effect entry in data set [3] is given as “five- to ten-fold”. In data set [4], the “Substrate of CYP3A4” value is reported as “substrate”.
With `CCN(CC)CCOC(=O)c1ccc(N)cc1` [Procaine], the “Peak Area Ratio (Analyte/IS)” value in data set [5] (0 hr, Replicate 1) turned out to be 0.443; in data set [5] (0 hr, Replicate 2), 0.444; in data set [5] (24 hr, 37° C., Replicate 1) it was 0.0; in data set [5] (24 hr, 37° C., Replicate 2), 0.0; in data set [6] (Replicate 1), 0.0916; in data set [6] (Replicate 2), 0.357. In addition, the “% Remaining after 24-hr Incubation at 37° C.” value in data set [5] (human, plasma, 24 h, 10 μM) stood at 0.0%; in data set [6] (Average) it was 51%; in data set [6] (Replicate 1), 20.65%; in data set [6] (Replicate 2), 80.5%.
